According to ChEMBL document CHEMBL1149767, “Structural and biological studies of mononuclear palladium(II) complexes containing N-substituted thiosemicarbazones” (2008):

Experiments:
Type in all cases: functional
Escherichia coli [1] = assay: Antibacterial activity against Escherichia coli assessed as diameter of inhibition zone at 0.5% after 24 hrs
Pseudomonas aeruginosa [2] = assay: Antibacterial activity against Pseudomonas aeruginosa assessed as diameter of inhibition zone at 0.5% after 24 hrs
Vibrio cholerae [3] = assay: Antibacterial activity against Vibrio cholerae assessed as diameter of inhibition zone at 0.5% after 24 hrs; parameters: scale not given: the % may be the effect or the level left
Escherichia coli [4] = assay: Antibacterial activity against Escherichia coli assessed as diameter of inhibition zone at 1.0% after 24 hrs
Staphylococcus aureus [5] = assay: Antibacterial activity against Staphylococcus aureus assessed as diameter of inhibition zone at 1.0% after 24 hrs
Pseudomonas aeruginosa [6] = assay: Antibacterial activity against Pseudomonas aeruginosa assessed as diameter of inhibition zone at 1.0% after 24 hrs
Vibrio cholerae [7] = assay: Antibacterial activity against Vibrio cholerae assessed as diameter of inhibition zone at 1.0% after 24 hrs; parameters: scale not given: the % may be the effect or the level left
Staphylococcus aureus [8] = assay: Antibacterial activity against Staphylococcus aureus assessed as diameter of inhibition zone at 2.0% after 24 hrs
Pseudomonas aeruginosa [9] = assay: Antibacterial activity against Pseudomonas aeruginosa assessed as diameter of inhibition zone at 2.0% after 24 hrs
Vibrio cholerae [10] = assay: Antibacterial activity against Vibrio cholerae assessed as diameter of inhibition zone at 2.0% after 24 hrs; parameters: scale not given: the % may be the effect or the level left
Escherichia coli [11] = assay: Antibacterial activity against Escherichia coli assessed as diameter of inhibition zone at 0.25% after 24 hrs
Vibrio cholerae [12] = assay: Antibacterial activity against Vibrio cholerae assessed as diameter of inhibition zone at 0.25% after 24 hrs; parameters: scale not given: the % may be the effect or the level left
Staphylococcus aureus [13] = assay: Antibacterial activity against Staphylococcus aureus assessed as diameter of inhibition zone at 0.5% after 24 hrs
Escherichia coli [14] = assay: Antibacterial activity against Escherichia coli assessed as diameter of inhibition zone at 2.0% after 24 hrs
Staphylococcus aureus [15] = assay: Antibacterial activity against Staphylococcus aureus assessed as diameter of inhibition zone at 0.25% after 24 hrs
Pseudomonas aeruginosa [16] = assay: Antibacterial activity against Pseudomonas aeruginosa assessed as diameter of inhibition zone at 0.25% after 24 hrs

Oc1ccccc1/C=N/NC(=S)Nc1ccccc1
inhibition zone (IZ) (Escherichia coli [1]): 7 mm
inhibition zone (IZ) (Pseudomonas aeruginosa [2]): 5 mm
Activity (Vibrio cholerae [3]): 6%
inhibition zone (IZ) (Escherichia coli [4]): 8 mm
inhibition zone (IZ) (Staphylococcus aureus [5]): 8 mm
inhibition zone (IZ) (Pseudomonas aeruginosa [6]): 7 mm
Activity (Vibrio cholerae [7]): 8%
inhibition zone (IZ) (Staphylococcus aureus [8]): 9 mm
inhibition zone (IZ) (Pseudomonas aeruginosa [9]): 9 mm
Activity (Vibrio cholerae [10]): 9%
inhibition zone (IZ) (Escherichia coli [11]): 5 mm
Activity (Vibrio cholerae [12]): 4%
inhibition zone (IZ) (Staphylococcus aureus [13]): 6 mm

CN[C@@H]1[C@H](O[C@H]2[C@H](O[C@H]3[C@H](O)[C@@H](O)[C@H](N=C(N)N)[C@@H](O)[C@@H]3N=C(N)N)O[C@@H](C)[C@]2(O)C=O)O[C@@H](CO)[C@H](O)[C@H]1O [STREPTOMYCIN]
inhibition zone (IZ) (Escherichia coli [1]): 20 mm
inhibition zone (IZ) (Pseudomonas aeruginosa [2]): 21 mm
Activity (Vibrio cholerae [3]): 17%
inhibition zone (IZ) (Escherichia coli [4]): 22 mm
inhibition zone (IZ) (Staphylococcus aureus [5]): 23 mm
inhibition zone (IZ) (Pseudomonas aeruginosa [6]): 23 mm
Activity (Vibrio cholerae [7]): 20%
inhibition zone (IZ) (Escherichia coli [14]): 25 mm
inhibition zone (IZ) (Staphylococcus aureus [8]): 25 mm
inhibition zone (IZ) (Pseudomonas aeruginosa [9]): 24 mm
Activity (Vibrio cholerae [10]): 22%
inhibition zone (IZ) (Escherichia coli [11]): 18 mm
inhibition zone (IZ) (Staphylococcus aureus [15]): 17 mm
inhibition zone (IZ) (Pseudomonas aeruginosa [16]): 18 mm
Activity (Vibrio cholerae [12]): 14%
inhibition zone (IZ) (Staphylococcus aureus [13]): 19 mm
